From article PMC4117522, “Proteasome Inhibitors Alter Levels of Intracellular Peptides in HEK293T and SH-SY5Y Cells” (PLoS ONE, 2014)
Where “and” joins values, the source holds several entries; their conditions need not be identical. Identical values can stand only once.

System: HEK293T cells
Assay: Quantitative peptidomics (TMAB isotopic labels, LC-MS/MS) of inhibitor-treated HEK293T cells
Format: cell-based, human
Protocol: HEK293T and SH-SY5Y cells were grown to 80–90% confluence in DMEM and RPMI supplemented with 10% fetal bovine serum and penicillin/streptomycin. A single plate of cells (150 mm×25 mm) was used for each group. At the start of the experiment, media were removed from the plates and cells were washed with DPBS (138 mM NaCl, 8.06 mM Na2HPO4, 2.67 mM KCl, 1.47 mM KH2PO4, 0.9 mM CaCl2 and 0.49 mM MgCl2). This was followed by addition of serum-free media containing the proteasome or aminopeptidase inhibitors, or 0.05% DMSO as a control for the inhibitors that were soluble in DMSO. Each experiment consisted of two control groups and two or three replicate groups of cells treated with one of the inhibitors. The cells were incubated at 37°C for 20 minutes, following which media containing the inhibitor was removed, cells were washed with DPBS, detached from the plate by scraping into DPBS (without trypsin), and centrifuged at 800×g for 5 min. The wash buffer was supplemented with the appropriate inhibitor at the same concentration as used for the treatment, thereby ensuring that the changes induced in peptide levels were not reversed during harvesting of cells due to possible dissociation of the reversible inhibitors. The wash time (including centrifugation) was 15 minutes, for a total treatment time of 35 minutes. After centrifugation, the cell pellet was resuspended in 1 ml of 80°C water and incubated in an 80°C water bath for 20 minutes to inactivate proteases. The mixture was again centrifuged (13,000×g, 30 min, 4°C) and was stored at −80°C overnight. For peptide extraction, the samples were thawed and centrifuged again. The lysate was subsequently cooled on ice and acidified with HCl to a final concentration of 10 mM. After 15 min incubation on ice, the lysate was centrifuged at 13,000×g for 30 min at 4°C. To the supernatant, 250 µL of dibasic sodium phosphate (0.4 M, pH 9.5) was added and the mixture was stored at −80°C until labeling.
The labeling protocol has been earlier described in detail. Each group within an experiment (control/treated) was labeled with a different isotopic tag. The TMAB-NHS labels were dissolved in DMSO to a concentration of 400 µg/µL and 15 mg of label was used per 150 mm plate of cells. […] At the beginning, the pH of the peptide extract was adjusted to 9.5 with 1 M NaOH. Labeling was performed over 8 rounds; 4.69 µL of the label was added to the extract every 20 min. The pH was measured between each round and if necessary, brought back to 9.5 for the first five rounds. For rounds 6–8, the pH was not adjusted after the addition of the TMAB-NHS reagent. After the final round of label addition, the pH was adjusted to 9.5 again and the extracts were incubated at room temperature for 90 min. Thereafter, 30 µL of 2.5 M glycine was added to quench any unreacted label. Following 40 min incubation at room temperature, the labeled extracts for a single experiment were pooled and filtered through Amicon Ultracel-10 K units. It is important to ensure that only N-terminal amines and lysine side-chain amines of peptides are TMAB-labeled and not tyrosines. To hydrolyze any labeled tyrosine, 30 µL of a 2 M solution of hydroxylamine hydrochloride (pH 3.7) was added over three rounds to the pooled and filtered sample. The pH was measured after the addition of hydroxylamine and adjusted to 9.0 with 1 M NaOH. The samples were desalted through PepClean C-18 spin columns (Thermo Scientific, Rockford, IL, USA) by following manufacturer’s instructions. Peptides were eluted using 160 µL of 0.5% TFA and 70% acetonitrile, frozen at −80°C and then lyophilized in a vacuum centrifuge and stored at −80°C until analysis by mass spectrometry.
The LC-MS/MS experiments were performed on a Synapt G2 mass spectrometer coupled to a NanoAcquity capillary liquid chromatography system (Waters Co., Milford, MA, USA).

SMILES: CN1C/C(=C/c2ccc(B(O)O)cc2)C(=O)/C(=C\c2ccc(B(O)O)cc2)C1 [AM114, reference compound]
- Relative Levels of peptide ADKVPKTAENFRAL (PPIA) (1 uM, 35', HEK): 1.29 and 0.68 and 0.72
- Relative Levels of peptide AGAAVDELGKVLTPTQV (PEBP1) (1 uM, 35', HEK): 1.53 and 0.85
- Relative Levels of peptide AKADGIVSKNF (RPS21) (1 uM, 35', HEK): 0.95 and 0.82 and 0.98
- Relative Levels of peptide APIKVGDAIPAVEVF (PRDX5) (1 uM, 35', HEK): 1.44 and 0.88
- Relative Levels of peptide APPTAYIDFARQK (TPI1) (1 uM, 35', HEK): 1.67 and 1.17
- Relative Levels of peptide ASQPDVDGFLVGGASLKPEFVDIINAKQ (TPI1) (1 uM, 35', HEK): 0.84 and 1.26 and 1.47
- Relative Levels of peptide AVDGEPLGRVSF (PPIA) (1 uM, 35', HEK): 1.20 and 0.93 and 0.87
- Relative Levels of peptide Ac-AAPVDLELKKAFTEL (PFDN1) (1 uM, 35', HEK): 1.09 and 0.91 and 0.97
- Relative Levels of peptide Ac-AEEGIAAGGVMDVNTALQEVLKT (RPS12) (1 uM, 35', HEK): 0.90 and 1.10
- Relative Levels of peptide Ac-ANLERTFIAIKPDGV (NME2) (1 uM, 35', HEK): 1.00 and 1.33
- Relative Levels of peptide Ac-ASKRALVIL (PARK7) (1 uM, 35', HEK): 1.00
- Relative Levels of peptide Ac-ASKRALVILA (PARK7) (1 uM, 35', HEK): 0.86 and 1.00
- Relative Levels of peptide Ac-MDTSRVQPIKL (RPS28) (1 uM, 35', HEK): 0.94 and 1.00
- Relative Levels of peptide Ac-MDTSRVQPIKLAR (RPS28) (1 uM, 35', HEK): 1.18 and 1.12 and 1.00
- Relative Levels of peptide Ac-MDTSRVQPIKLARVTKV (RPS28) (1 uM, 35', HEK): 1.29 and 1.14
- Relative Levels of peptide Ac-SSEEGKLFVGGLNF (RBM3) (1 uM, 35', HEK): 0.90 and 1.03
- Relative Levels of peptide Ac-SYGRPPPDVEGMTSLKVDNL (SRSF2) (1 uM, 35', HEK): 0.91 and 1.06 and 1.09
- Relative Levels of peptide Ac-[…] (COX6B1) (1 uM, 35', HEK): 1.03 and 0.97
- Relative Levels of peptide GESDDSILRLAKADGIVSKNF (RPS21) (1 uM, 35', HEK): 1.09 and 0.90 and 0.85
- Relative Levels of peptide GFGDLKSPAGLQVL (EEF1B2) (1 uM, 35', HEK): 1.74 and 1.18
- Relative Levels of peptide GISTPEELGLDKV (COX5A) (1 uM, 35', HEK): 1.60 and 1.00
- Relative Levels of peptide KHTGPGILSM (PPIA) (1 uM, 35', HEK): 1.13 and 1.00 and 0.92
- Relative Levels of peptide PGIVELPTLEEL (NDUFA8) (1 uM, 35', HEK): 1.07 and 0.80 and 0.67
- Relative Levels of peptide SLGELIGTLNA (TPI1) (1 uM, 35', HEK): 1.06 and 0.59 and 0.88
- Relative Levels of peptide VNPTVFFDI (PPIA) (1 uM, 35', HEK): 1.20 and 0.67 and 0.80
- change in levels of intracellular peptides (peptidome) (HEK293T cells, 35 min, 2.5 µM MG132, 1 µM other inhibitors): did not produce a substantial change in levels of peptides
